Laboratory results published in ChEMBL document CHEMBL1201862, “PubChem BioAssay data set” (2004).
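These data come from cells grown in 96-well plates and exposed to compound for 48 hours at five concentrations. GI50 is the concentration that inhibits growth by half.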 The source made the active and inactive calls. Cut-off read from the data, not from the text of the source: active = GI50 up to about 1.1 µM and inactive = higher.

What was measured:
Assay in all cases: growth of human tumour cells (NCI), 48 h
SK-OV-3 = test system: SK-OV-3
T47D = test system: T47D
BT-549 = test system: BT-549
RXF 393 = test system: RXF 393
SK-MEL-2 = test system: SK-MEL-2
A498 = test system: A498
Malme-3M = test system: Malme-3M
OVCAR-4 = test system: OVCAR-4
SW-620 = test system: SW-620
SK-MEL-5 = test system: SK-MEL-5
PC-3 = test system: PC-3
UACC-257 = test system: UACC-257
HOP-92 = test system: HOP-92
EKVX = test system: EKVX
MDA-MB-231 = test system: MDA-MB-231
UACC-62 = test system: UACC-62
HOP-62 = test system: HOP-62
OVCAR-8 = test system: OVCAR-8
NCI-H23 = test system: NCI-H23
M14 = test system: M14

Measured: GI50

NS(=O)(=O)c1cc(C(=O)O)c(O)c2ccccc12
inactive: SK-OV-3 > 100 µM | T47D > 100 µM | BT-549 > 100 µM | RXF 393 > 100 µM | SK-MEL-2 > 100 µM | A498 > 100 µM | Malme-3M 92 µM | OVCAR-4 > 100 µM | SW-620 > 100 µM | SK-MEL-5 > 100 µM | PC-3 > 100 µM | UACC-257 > 100 µM | HOP-92 > 100 µM | EKVX > 100 µM | MDA-MB-231 > 100 µM | UACC-62 > 100 µM | HOP-62 > 100 µM | OVCAR-8 > 100 µM | NCI-H23 > 100 µM | M14 > 100 µM

O=C(O)CCCCn1cnc2c(S)ncnc21
inactive: SK-OV-3 > 100 µM | T47D > 100 µM | BT-549 > 100 µM | RXF 393 > 100 µM | SK-MEL-2 > 100 µM | A498 > 100 µM | Malme-3M > 100 µM | OVCAR-4 > 100 µM | SW-620 > 100 µM | SK-MEL-5 > 100 µM | PC-3 > 100 µM | UACC-257 > 100 µM | HOP-92 > 100 µM | EKVX > 100 µM | MDA-MB-231 > 100 µM | UACC-62 > 100 µM | HOP-62 > 100 µM | OVCAR-8 > 100 µM | NCI-H23 > 100 µM | M14 > 100 µM

CC(=O)NCCC1CN(C(=O)/C=C\I)c2ccccc21 (stereo not given)
inactive: SK-OV-3 20 µM | T47D 18.2 µM | BT-549 21.6 µM | RXF 393 7.29 µM | SK-MEL-2 16 µM | A498 18.4 µM | Malme-3M 15.2 µM | OVCAR-4 18.9 µM | SW-620 12.7 µM | SK-MEL-5 3.48 µM | PC-3 11.7 µM | UACC-257 13.8 µM | HOP-92 21.7 µM | EKVX 17.3 µM | MDA-MB-231 4.13 µM | UACC-62 13 µM | HOP-62 11.2 µM | OVCAR-8 16.2 µM | NCI-H23 16.4 µM | M14 11.7 µM

CCOC(=O)c1c(N2CCCC2)[nH]c(=O)c(C(c2ccco2)c2c(O)c(C(=O)OCC)c(N3CCCC3)[nH]c2=O)c1O
inactive: SK-OV-3 > 100 µM | T47D 19.4 µM | BT-549 > 100 µM | RXF 393 54.5 µM | SK-MEL-2 > 100 µM | A498 > 100 µM | Malme-3M > 100 µM | OVCAR-4 > 100 µM | SW-620 > 100 µM | SK-MEL-5 82.6 µM | PC-3 > 100 µM | UACC-257 > 100 µM | HOP-92 > 100 µM | EKVX > 100 µM | MDA-MB-231 > 100 µM | UACC-62 > 100 µM | HOP-62 50.6 µM | OVCAR-8 92.9 µM | NCI-H23 > 100 µM | M14 > 100 µM

O=C1N/C(=N/N=C/c2c[nH]c3ccccc23)N/C1=C\c1c[nH]c2ccccc12
inactive: SK-OV-3 35.9 µM | T47D 17.5 µM | BT-549 20.3 µM | RXF 393 28.6 µM | SK-MEL-2 20.3 µM | A498 12.7 µM | Malme-3M 15.5 µM | OVCAR-4 26.9 µM | SW-620 18.2 µM | SK-MEL-5 19.6 µM | PC-3 15.7 µM | UACC-257 28.5 µM | HOP-92 16.8 µM | EKVX 25.6 µM | MDA-MB-231 20 µM | UACC-62 19.7 µM | HOP-62 27 µM | OVCAR-8 15.8 µM | NCI-H23 18.2 µM | M14 29 µM

O=[N+]([O-])c1ccc(C(Nc2ccccc2)P(c2ccccc2)c2ccccc2)cc1 (stereo not given)
inactive: SK-OV-3 > 100 µM | T47D > 100 µM | BT-549 > 100 µM | RXF 393 > 100 µM | SK-MEL-2 > 100 µM | A498 > 100 µM | Malme-3M > 100 µM | OVCAR-4 > 100 µM | SW-620 > 100 µM | SK-MEL-5 > 100 µM | PC-3 > 100 µM | UACC-257 > 100 µM | HOP-92 > 100 µM | EKVX > 100 µM | MDA-MB-231 > 100 µM | UACC-62 > 100 µM | HOP-62 67.3 µM | OVCAR-8 > 100 µM | NCI-H23 > 100 µM | M14 > 100 µM

O=c1cc(N=P(c2ccccc2)(c2ccccc2)c2ccccc2)n(-c2ccccc2)c(=O)n1-c1ccccc1
inactive: SK-OV-3 22.2 µM | T47D 8.85 µM | BT-549 14.5 µM | RXF 393 1.53 µM | SK-MEL-2 13.8 µM | A498 3.18 µM | Malme-3M 11.8 µM | OVCAR-4 4.95 µM | SW-620 7.45 µM | SK-MEL-5 10.3 µM | PC-3 3.94 µM | UACC-257 23.8 µM | HOP-92 9.02 µM | EKVX 10.4 µM | MDA-MB-231 8.18 µM | UACC-62 11.4 µM | HOP-62 6.52 µM | OVCAR-8 12.3 µM | NCI-H23 5.85 µM | M14 8.79 µM

N#CC1(C#N)NC(c2cccnc2)C(C#N)(C#N)NC1c1cccnc1 (stereo not given)
inactive: SK-OV-3 > 100 µM | T47D > 100 µM | BT-549 > 100 µM | RXF 393 28.1 µM | SK-MEL-2 > 100 µM | A498 > 100 µM | Malme-3M > 100 µM | OVCAR-4 > 100 µM | SW-620 > 100 µM | SK-MEL-5 > 100 µM | PC-3 > 100 µM | UACC-257 > 100 µM | HOP-92 > 100 µM | EKVX > 100 µM | MDA-MB-231 > 100 µM | UACC-62 > 100 µM | HOP-62 > 100 µM | OVCAR-8 > 100 µM | NCI-H23 > 100 µM | M14 > 100 µM

Cc1ccc(/N=N\c2c(O)c(S(=O)(=O)O)cc3cc(S(=O)(=O)O)ccc23)c(C)c1
inactive: SK-OV-3 > 100 µM | T47D > 100 µM | BT-549 > 100 µM | RXF 393 > 100 µM | SK-MEL-2 > 100 µM | A498 > 100 µM | Malme-3M > 100 µM | OVCAR-4 > 100 µM | SW-620 > 100 µM | SK-MEL-5 > 100 µM | PC-3 > 100 µM | UACC-257 > 100 µM | HOP-92 > 100 µM | EKVX > 100 µM | MDA-MB-231 > 100 µM | UACC-62 > 100 µM | HOP-62 > 100 µM | OVCAR-8 > 100 µM | NCI-H23 > 100 µM | M14 > 100 µM

O=C1OC(C2OC(=O)c3cc(O)c(O)c(O)c3-c3c(O)c(O)c4oc(=O)c5c(c(O)c(O)c6oc(=O)c3c4c65)-c3c(cc(O)c(O)c3O)C(=O)OCC2O)C2OC(=O)c3c(c(O)c(O)c(O)c3[C@H]2O)-c2c1cc(O)c(O)c2O (stereo not given in full)
inactive: SK-OV-3 59.7 µM | T47D 26.7 µM | BT-549 24 µM | RXF 393 26.5 µM | SK-MEL-2 31.6 µM | A498 > 100 µM | Malme-3M 31.6 µM | OVCAR-4 16.1 µM | SW-620 19 µM | SK-MEL-5 13.9 µM | PC-3 36.4 µM | UACC-257 32 µM | HOP-92 18.3 µM | EKVX 13 µM | MDA-MB-231 13.5 µM | UACC-62 22.9 µM | HOP-62 33.5 µM | OVCAR-8 20.2 µM | NCI-H23 16.6 µM | M14 16.4 µM
